We go through 13 molecules from BindingDB's records for doi:10.1021/jm010237l (Abbott Laboratories, 2001).

The target of the assay is Endothelin receptor type B (Sus scrofa) (UniProt P35463). In words: Binding affinity against endothelin B receptor in porcine cerebellar tissue.

Molecules are shown by their SMILES.

Chain of Endothelin receptor type B (Sus scrofa) (P35463 whole entry, looked up): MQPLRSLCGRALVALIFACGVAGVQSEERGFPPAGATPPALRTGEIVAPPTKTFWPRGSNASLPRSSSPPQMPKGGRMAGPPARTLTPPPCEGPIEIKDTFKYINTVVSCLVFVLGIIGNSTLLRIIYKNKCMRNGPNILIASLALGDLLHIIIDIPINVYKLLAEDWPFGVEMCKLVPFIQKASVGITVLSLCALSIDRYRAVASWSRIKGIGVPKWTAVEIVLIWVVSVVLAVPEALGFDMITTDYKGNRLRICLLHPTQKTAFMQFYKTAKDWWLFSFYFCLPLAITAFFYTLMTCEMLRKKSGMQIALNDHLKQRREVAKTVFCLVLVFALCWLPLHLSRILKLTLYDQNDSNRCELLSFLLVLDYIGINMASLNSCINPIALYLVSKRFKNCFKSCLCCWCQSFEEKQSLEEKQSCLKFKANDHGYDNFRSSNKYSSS

Molecule `CCCCN(CCCC)C(=O)CN1C[C@H](c2ccc3c(c2)CCO3)[C@@H](C(=O)O)[C@@H]1c1ccc(OC)cc1` [(2R,3R,4S)-1-Dibutylcarbamoylmethyl-4-(2,3-dihydro-benzofuran-5-yl)-2-(4-methoxy-phenyl)-pyrrolidine-3-carboxylic acid] displayed an IC50 of 2.67 µM.

The molecule `CCCCN(CCCC)C(=O)CN1C[C@H](c2ccc3c(c2)OCO3)[C@@H](C(=O)O)[C@@H]1c1ccc(F)c(F)c1` [4-Benzo[1,3]dioxol-5-yl-1-dibutylcarbamoylmethyl-2-(3,4-difluoro-phenyl)-pyrrolidine-3-carboxylic acid] registered an IC50 of 1.04 µM.

For `CCCCN(CCCC)C(=O)CN1C[C@H](c2ccc3c(c2)CCO3)[C@@H](C(=O)O)[C@@H]1c1ccc(C)cc1` [1-Dibutylcarbamoylmethyl-4-(2,3-dihydro-benzofuran-5-yl)-2-p-tolyl-pyrrolidine-3-carboxylic acid], the IC50 was 12 µM.

With `CCCCN(CCCC)C(=O)CN1C[C@H](c2ccc3c(c2)OCO3)[C@@H](C(=O)O)[C@@H]1c1ccc(CC)cc1` [4-Benzo[1,3]dioxol-5-yl-1-dibutylcarbamoylmethyl-2-(4-ethyl-phenyl)-pyrrolidine-3-carboxylic acid], the IC50 was determined as 1.3 µM.

In turn, `CCCCN(CCCC)C(=O)CN1C[C@H](c2ccc3c(c2)OCO3)[C@@H](C(=O)O)[C@@H]1c1ccc(CCC)cc1` [4-Benzo[1,3]dioxol-5-yl-1-dibutylcarbamoylmethyl-2-(4-propyl-phenyl)-pyrrolidine-3-carboxylic acid] gave an IC50 of 1.13 µM.

The molecule `CCCCN(CCCC)C(=O)CN1C[C@H](c2ccc3c(c2)OCO3)[C@@H](C(=O)O)[C@@H]1c1ccc(OC)c(OC)c1` [4-Benzo[1,3]dioxol-5-yl-1-dibutylcarbamoylmethyl-2-(3,4-dimethoxy-phenyl)-pyrrolidine-3-carboxylic acid] registered a 50% inhibitory concentration (IC50) of 0.3 µM.

Turning to `CCCCN(CCCC)C(=O)CN1C[C@H](c2ccc3c(c2)OCO3)[C@@H](C(=O)O)[C@@H]1c1ccc(C(F)(F)F)cc1` [4-Benzo[1,3]dioxol-5-yl-1-dibutylcarbamoylmethyl-2-(4-trifluoromethyl-phenyl)-pyrrolidine-3-carboxylic acid], the IC50 is 14.3 µM.

The molecule `CCCCN(CCCC)C(=O)CN1C[C@H](c2ccc3c(c2)OCC3)[C@@H](C(=O)O)[C@@H]1c1ccc(OC)cc1` [1-Dibutylcarbamoylmethyl-4-(2,3-dihydro-benzofuran-6-yl)-2-(4-methoxy-phenyl)-pyrrolidine-3-carboxylic acid] had an IC50 of 0.96 µM.

Regarding `CCCCN(CCCC)C(=O)CN1C[C@H](c2ccc3c(c2)OCO3)[C@@H](C(=O)O)[C@@H]1c1ccc(OC)c(F)c1` [4-Benzo[1,3]dioxol-5-yl-1-dibutylcarbamoylmethyl-2-(3-fluoro-4-methoxy-phenyl)-pyrrolidine-3-carboxylic acid], the IC50 was found to be 0.03 µM.

Regarding `CCCCN(CCCC)C(=O)CN1C[C@H](c2ccc3c(c2)OCCO3)[C@@H](C(=O)O)[C@@H]1c1ccc(CC)cc1` [1-Dibutylcarbamoylmethyl-4-(2,3-dihydro-benzo[1,4]dioxin-6-yl)-2-(4-ethyl-phenyl)-pyrrolidine-3-carboxylic acid], the IC50 was 7.7 µM.

Take `CCCCN(CCCC)C(=O)CN1C[C@H](c2ccc3c(c2)CCO3)[C@@H](C(=O)O)[C@@H]1c1ccc(CC)cc1` [1-Dibutylcarbamoylmethyl-4-(2,3-dihydro-benzofuran-5-yl)-2-(4-ethyl-phenyl)-pyrrolidine-3-carboxylic acid]: the half-inhibitory concentration (IC50) was 8.13 µM.

As for `CCCCN(CCCC)C(=O)CN1C[C@H](c2ccc3c(c2)OCO3)[C@@H](C(=O)O)[C@@H]1c1ccc(C)cc1` [4-Benzo[1,3]dioxol-5-yl-1-dibutylcarbamoylmethyl-2-p-tolyl-pyrrolidine-3-carboxylic acid], the IC50 came out at 2.14 µM.

Turning to `CCCCN(CCCC)C(=O)CN1C[C@H](c2ccc3occc3c2)[C@@H](C(=O)O)[C@@H]1c1ccc(OC)cc1` [4-Benzofuran-5-yl-1-dibutylcarbamoylmethyl-2-(4-methoxy-phenyl)-pyrrolidine-3-carboxylic acid], the IC50 was 5.08 µM.

Broadly, the IC50 is the concentration at which inhibition is half-maximal. High values mean lower potency, low ones higher potency.
